Laboratory results reported in US20040116346A1, “Affinity small molecules for the EPO receptor” (priority 2002, published 2004).

System: EPO-Receptor down stream signaling pathway in TF-1 or UT-7 cells
Test: In vitro signaling (EPO-R activation)
Assay type: cell-based
Description: UT-7 cells were grown in Minimal Essential Medium Alpha (MEM-α) containing 20% FBS, 1.5 g/L NaHCO3, 5 ng/ml GM-CSF, and 100U Penicillin/100 ug/ml Streptomycin Sulfate (“P/S”), in T150 flasks (60 ml/flask) at 37° C., 5% CO2 to a density of no more than 5×10^5 cells/ml. The cells were starved overnight in MEM-α containing 10% FBS, 1.5 g/L NaHCO3 and P/S in T150 flasks (60ml/flask) at a density of 5×10^5 cells/ml, in 5% CO2, 37° C. The cells were then centrifuged in a swinging-bucket rotor at 200×g for 5 minutes at room temperature. The supernatant was removed, and the cells pooled into one 50 ml conical tube. The cells were washed twice with serum-free medium (MEM-alpha containing 1.5 g/L NaHCO3 and P/S). After the last wash, the cells were resuspended to a density of 1×10^7 cells/ml in serum-free medium. The cells were then placed in 15 ml conical tubes in 1 ml aliquots and incubated with the caps loosened for 1 hour at 37° C., 5% CO2. Every 10 minutes, the lower portion of each tube was tapped (flicked) several times to prevent the cells from settling (please note, this step is very important!)
It was also observed that EPO-R was phosphorylated when stimulated with non-peptide EPO-R modulators. (See FIG. 4) […]

## Cc1ccc(Cl)cc1Nc1nc2nc(C)c(NCC3CC3)cn2n1 [Compound E5]
  activation of EPO-R: activation of EPO-R
